Data taken from PubChem BioAssay (NCI).
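Test compounds were applied to cells in 96-well plates for 48 hours at 5 doses. GI50: concentration for 50% inhibition of growth. Definition used: TGI = concentration required for complete inhibition of growth.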

Legend:
Assay in all cases: growth of human tumour cells (NCI), 48 h
HL-60(TB) leukemia = tested on: HL-60(TB) leukemia
786-0 renal = tested on: 786-0 renal
SNB-19 CNS = tested on: SNB-19 CNS
NCI-H522 lung = tested on: NCI-H522 lung
SF-539 CNS = tested on: SF-539 CNS
COLO 205 colon = tested on: COLO 205 colon
SK-MEL-2 melanoma = tested on: SK-MEL-2 melanoma
SN12C renal = tested on: SN12C renal
HCT-15 colon = tested on: HCT-15 colon
MALME-3M melanoma = tested on: MALME-3M melanoma

| Structure (SMILES) | TGI (HL-60(TB) leukemia) | GI50 (786-0 renal) | TGI (786-0 renal) | GI50 (SNB-19 CNS) | TGI (SNB-19 CNS) | GI50 (NCI-H522 lung) | TGI (NCI-H522 lung) | GI50 (SF-539 CNS) | TGI (SF-539 CNS) | GI50 (COLO 205 colon) | TGI (COLO 205 colon) | GI50 (SK-MEL-2 melanoma) | TGI (SK-MEL-2 melanoma) | GI50 (SN12C renal) | TGI (SN12C renal) | GI50 (HCT-15 colon) | TGI (HCT-15 colon) | TGI (MALME-3M melanoma) | GI50 (MALME-3M melanoma) | GI50 (HL-60(TB) leukemia) |
| --- | --- | --- | --- | --- | --- | --- | --- | --- | --- | --- | --- | --- | --- | --- | --- | --- | --- | --- | --- | --- |
| COCCOC(C)C(/C=N/NC(N)=S)=N/NC(N)=S (centres undefined) | > 58.9 µM | > 100 µM | > 100 µM | > 100 µM | > 100 µM | > 100 µM | > 100 µM | > 100 µM | > 100 µM | > 100 µM | > 100 µM | > 100 µM | > 100 µM | > 100 µM | > 100 µM | > 100 µM | > 100 µM |  |  |  |
| N#Cc1c(NC(=O)CCC(=O)O)ccc2ccccc12 |  |  | > 100 µM |  | > 100 µM |  | > 100 µM |  | > 100 µM |  | > 100 µM |  | > 100 µM |  | > 100 µM |  | > 100 µM | > 100 µM |  |  |
| O=C(O)[C@@H]1C[C@@H](O)CN1 | > 100 µM |  | > 100 µM |  | > 100 µM |  |  |  | > 100 µM |  | > 100 µM |  | > 100 µM |  | > 100 µM |  | > 100 µM | > 100 µM |  |  |
| COc1cc(C2C(C(=O)O)=C(C)Oc3cc4c(cc32)OCO4)cc(OC)c1OC (centres undefined) | 50.8 µM |  | > 100 µM |  | > 100 µM |  |  |  |  |  | 60.6 µM |  |  |  | > 100 µM |  | > 100 µM | > 100 µM |  |  |
| C[C@]12CC[C@@H]3c4ccc(O)cc4CC[C@H]3[C@@H]1CC[C@@H]2NS(=O)(=O)c1cccc(Br)c1 |  | 3.25 µM | 10.4 µM | 7.09 µM | 20.4 µM | 2.36 µM | 11.4 µM | 2.6 µM | 8.8 µM | 1.89 µM | 3.38 µM | 3.68 µM | 12 µM | 2.25 µM | 5.73 µM | 2.77 µM | 11.1 µM | 7.58 µM | 2.27 µM |  |
| CC(=O)O[C@H]1CCC2[C@@H]3CCC4C(=O)c5oncc5C[C@]4(C)C3CC[C@@]21C (some centres undefined) | > 100 µM |  | > 100 µM |  |  |  |  |  |  |  | > 100 µM |  | > 100 µM |  | > 100 µM |  | > 100 µM | > 100 µM |  |  |
| COc1ccc(/C=N/NC(=O)O)cc1 |  |  | > 100 µM |  | > 100 µM |  | > 100 µM |  | > 100 µM |  | > 100 µM |  | > 100 µM |  | > 100 µM |  | > 100 µM | > 100 µM |  |  |
| CC(=O)Nc1ccc(/C=c2\sc3nnc(/C=C/c4ccccc4)n3c2=O)cc1 | > 50 µM |  | > 50 µM |  | > 50 µM |  | > 50 µM |  | > 50 µM |  | > 50 µM |  | > 50 µM |  | > 50 µM |  |  | > 50 µM |  |  |
| CC1CC2C3CC(F)C4=CC(=O)C=CC4(C)C3(F)C(O)CC2(C)C1(O)C(=O)CO (centres undefined) | > 100 µM |  | > 100 µM |  | > 100 µM |  | > 100 µM |  | > 100 µM |  | > 100 µM |  | > 100 µM |  |  |  | > 100 µM | > 100 µM |  |  |
| CC1=CC(C)C(O)C(C)/C=C/C(O)C/C=C(/C)C(=O)CC(O)C(C)\C=C/C=C/C=C\C(=O)NC2=C(O)c3cc(C)c(O)c(c3C(=O)C2=O)C1=O (centres undefined) | > 100 µM |  | > 100 µM |  | > 100 µM |  | > 100 µM |  | > 100 µM |  | > 100 µM |  | > 100 µM |  | > 100 µM |  | > 100 µM |  |  |  |
| COC(=O)C1CCc2c(OC)ccc(OC)c2C1=O (centres undefined) | > 100 µM |  | > 100 µM |  | > 100 µM |  | > 100 µM |  | > 100 µM |  | > 100 µM |  | > 100 µM |  |  |  |  | > 100 µM |  |  |
| O=C=Nc1ccc(Cc2ccc(N=C=O)cc2)cc1 (tested in a mixture with another compound) |  | > 25 µg/mL | > 25 µg/mL | > 25 µg/mL | > 25 µg/mL | > 25 µg/mL | > 25 µg/mL | > 25 µg/mL | > 25 µg/mL | > 25 µg/mL | > 25 µg/mL | > 25 µg/mL | > 25 µg/mL | > 25 µg/mL | > 25 µg/mL | > 25 µg/mL | > 25 µg/mL | > 25 µg/mL | > 25 µg/mL |  |
| COC(=O)/C(=C/N1CCN(C(=O)c2ccco2)C1=S)C(C)=O | 71.5 µM | 11.2 µM | 27.7 µM | 41.7 µM | 94.8 µM |  |  |  |  | 12.6 µM | 35.8 µM | 15.2 µM | 51 µM | 5.93 µM | 22.4 µM | 2.22 µM | 5.77 µM | 50.4 µM | 5.64 µM | 7.47 µM |
| COc1ccc(OC)c(CCc2cc(OC)c(OC)cc2C)c1 |  |  | > 100 µM |  | > 100 µM |  | 20.4 µM |  |  |  | > 100 µM |  | > 100 µM |  | > 100 µM |  |  | > 100 µM |  |  |
| C=C(CO)CC(O)c1ccccc1 (centres undefined) | > 100 µM |  | > 100 µM |  | > 100 µM |  | > 100 µM |  | > 100 µM |  | > 100 µM |  | > 100 µM |  | > 100 µM |  | > 100 µM |  |  |  |
| O=C(C#Cc1c[nH]c(=O)[nH]c1=O)c1ccccc1 | 14.3 µM |  | 24.6 µM |  | 32 µM |  |  |  | 14.5 µM |  | 19.6 µM |  | 24.8 µM |  | 15.9 µM |  | 24.9 µM | 15.2 µM |  |  |
| O=S(=O)(Nc1ccc(Cl)c(C(F)(F)F)c1)c1ccc(-c2cnc(C3CC3)o2)cc1 | 1.49 µM | 1.1 µM | 3.58 µM |  |  | 0.149 µM | 3.25 µM | 0.452 µM | 2.16 µM | 0.419 µM | 2.33 µM | 0.343 µM | 3.67 µM | 1.05 µM | 4.71 µM | 0.156 µM | 5.57 µM | 4.41 µM | 0.624 µM | 0.261 µM |
| O=C(NCCNCCO)c1ccc2oc3cc4ccccc4c(=O)n3c2c1 | 34 µM | 14.6 µM | 44.4 µM | 14.1 µM | 40.9 µM | 5.62 µM | 14.2 µM |  |  | 12 µM | > 50 µM | 6.52 µM | 15.5 µM | 10.7 µM | 33 µM |  |  | 24.1 µM | 12.2 µM | 11.7 µM |
| COc1ccc2cc(C(=O)/C=C/c3ccc(OC)c(OC)c3)ccc2c1 | 25 µM | 18.8 µM | 35.4 µM | 27.2 µM | 80 µM |  |  | 3.77 µM | 16.3 µM | 30.7 µM | 73.5 µM |  |  | 13.5 µM | 32.6 µM | 3.11 µM | > 100 µM | > 100 µM | > 100 µM | 2.31 µM |
| Cc1ccc(C(=O)/C=C/c2ccccc2Cl)cc1 | 42.8 µM |  | 29.7 µM |  | 32.5 µM |  | 26.9 µM |  | 38.9 µM |  | 47.2 µM |  |  |  | 39.3 µM |  | 29.1 µM | 53.6 µM |  |  |
